This is an account of results in ChEMBL document CHEMBL3864157, “The synthesis and antistaphylococcal activity of dehydroabietic acid derivatives: Modifications at C-12” (2016).

Values after ≈ are worked out from the molar mass of the structure shown. Where only a bound is given, the exact number is not on record here.

This assay concerns Staphylococcus aureus. The assay can be described thus: Antibacterial activity against Staphylococcus aureus Newman. It is filed as functional.
`C/C(=N\OCc1ccccc1)c1cc2c(cc1C(C)C)CC[C@H]1[C@](C)(C(=O)O)CCC[C@]21C`: the minimum inhibitory concentration (MIC) (usually the lowest concentration found to suppress growth) is over 50 µg/mL.

In turn, `C=CCON=C(CCC)c1cc2c(cc1C(C)C)CC[C@H]1[C@](C)(C(=O)O)CCC[C@]21C` gave a minimum inhibitory concentration (MIC) of 10 to 12.5 µg/mL (≈ 23.5 to 29.4 µM).

Take `CC(C)c1cc2c(cc1C(=NO)c1cccs1)[C@@]1(C)CCC[C@@](C)(C(=O)O)[C@@H]1CC2`: the MIC lay within 6.25 to 12.5 µg/mL (≈ 14.7 to 29.4 µM).

The molecule `C#CCON=C(c1cc2c(cc1C(C)C)CC[C@H]1[C@](C)(C(=O)O)CCC[C@]21C)C(C)C` displayed an MIC of 10 to 12.5 µg/mL (≈ 23.6 to 29.5 µM).

Molecule `C=CCON=C(c1cccs1)c1cc2c(cc1C(C)C)CC[C@H]1[C@](C)(C(=O)O)CCC[C@]21C` registered an MIC of 25 to 50 µg/mL (≈ 53.7 to 107 µM).

`CCC(=NOC)c1cc2c(cc1C(C)C)CC[C@H]1[C@](C)(C(=O)O)CCC[C@]21C`: the minimum inhibitory concentration (MIC) was over 50 µg/mL.

For the molecule `CCC(=NO)c1cc2c(cc1C(C)C)CC[C@H]1[C@](C)(C(=O)O)CCC[C@]21C`, the MIC was over 50 µg/mL.

With `CC(C)c1cc2c(cc1C(=NO)C1CCCCC1)[C@@]1(C)CCC[C@@](C)(C(=O)O)[C@@H]1CC2`, the MIC fell in the range of 12.5 to 25 µg/mL (≈ 29.4 to 58.7 µM).

As for `C=CCON=C(c1ccc(C(F)(F)F)cc1)c1cc2c(cc1C(C)C)CC[C@H]1[C@](C)(C(=O)O)CCC[C@]21C`, the MIC is over 50 µg/mL.

`CC(C)c1cc2c(cc1C(=NO)c1ccccc1)[C@@]1(C)CCC[C@@](C)(C(=O)O)[C@@H]1CC2` showed an MIC of 10 to 12.5 µg/mL (≈ 23.8 to 29.8 µM).

`C=CCON=C(CC)c1cc2c(cc1C(C)C)CC[C@H]1[C@](C)(C(=O)O)CCC[C@]21C` showed an MIC of over 50 µg/mL.

Consider `CON=C(c1ccccc1)c1cc2c(cc1C(C)C)CC[C@H]1[C@](C)(C(=O)O)CCC[C@]21C`, for which the minimal inhibitory concentration (MIC) was 5 µg/mL (≈ 11.5 µM).

Turning to `CON=C(c1cc2c(cc1C(C)C)CC[C@H]1[C@](C)(C(=O)O)CCC[C@]21C)C1CCCCC1`, the minimal inhibitory concentration (MIC) is over 50 µg/mL.

Turning to `C#CCO/N=C(\C)c1cc2c(cc1C(C)C)CC[C@H]1[C@](C)(C(=O)O)CCC[C@]21C`, the MIC is over 50 µg/mL.

On to `CCCC(=NOC)c1cc2c(cc1C(C)C)CC[C@H]1[C@](C)(C(=O)O)CCC[C@]21C`, for which the MIC lay within 40 to 50 µg/mL (≈ 100 to 125 µM).

As to `CC(C)C(=NO)c1cc2c(cc1C(C)C)CC[C@H]1[C@](C)(C(=O)O)CCC[C@]21C`, the MIC is over 50 µg/mL.

`C#CCON=C(c1ccc(C(F)(F)F)cc1)c1cc2c(cc1C(C)C)CC[C@H]1[C@](C)(C(=O)O)CCC[C@]21C` came in with an MIC of over 50 µg/mL.

Molecule `CCCC(=NOCc1ccccc1)c1cc2c(cc1C(C)C)CC[C@H]1[C@](C)(C(=O)O)CCC[C@]21C` yielded an MIC of over 50 µg/mL.

The molecule `CC(C)c1cc2c(cc1C(=NOCc1ccccc1)c1ccccc1)[C@@]1(C)CCC[C@@](C)(C(=O)O)[C@@H]1CC2` yielded an MIC of over 50 µg/mL.

Molecule `C#CCON=C(c1cccs1)c1cc2c(cc1C(C)C)CC[C@H]1[C@](C)(C(=O)O)CCC[C@]21C` showed an MIC of 1.56 to 3.13 µg/mL (≈ 3.36 to 6.75 µM).

In the case of `C#CCON=C(CCC)c1cc2c(cc1C(C)C)CC[C@H]1[C@](C)(C(=O)O)CCC[C@]21C`, the MIC was 15 to 20 µg/mL (≈ 35.4 to 47.2 µM).

In turn, `C=CCO/N=C(\C)c1cc2c(cc1C(C)C)CC[C@H]1[C@](C)(C(=O)O)CCC[C@]21C` yielded a minimal inhibitory concentration (MIC) of 30 to 40 µg/mL (≈ 75.5 to 101 µM).

As to `CO/N=C(/c1cc2c(cc1C(C)C)CC[C@H]1[C@](C)(C(=O)O)CCC[C@]21C)C(C)C`, the MIC was 30 to 40 µg/mL (≈ 75.1 to 100 µM).

Molecule `C=CCON=C(c1cc2c(cc1C(C)C)CC[C@H]1[C@](C)(C(=O)O)CCC[C@]21C)C1CCCCC1` registered a minimal inhibitory concentration (MIC) of 12.5 to 25 µg/mL (≈ 26.8 to 53.7 µM).

`CON=C(c1cccs1)c1cc2c(cc1C(C)C)CC[C@H]1[C@](C)(C(=O)O)CCC[C@]21C` came in with an MIC of 6.25 to 12.5 µg/mL (≈ 14.2 to 28.4 µM).

`CCC(=NOCc1ccccc1)c1cc2c(cc1C(C)C)CC[C@H]1[C@](C)(C(=O)O)CCC[C@]21C` displayed a minimal inhibitory concentration (MIC) of over 50 µg/mL.

`C/C(=N\O)c1cc2c(cc1C(C)C)CC[C@H]1[C@](C)(C(=O)O)CCC[C@]21C` had a minimum inhibitory concentration (MIC) of over 50 µg/mL.

Consider `C=CCON=C(c1cc2c(cc1C(C)C)CC[C@H]1[C@](C)(C(=O)O)CCC[C@]21C)C(C)C`, for which the MIC is 10 to 12.5 µg/mL (≈ 23.5 to 29.4 µM).
